Molecular target: T1, Arf1 (Homo sapiens, UniProt P84077)
T1 construct: endogenous Arf1 in Huh7 cells, active form pulled down with GGA3 and detected with anti-Arf1 antibody
Assay: GGA3 pull-down of active Arf1, western blot
Assay type: cell-based
Settings: Huh7 cells; GBF1-dependent Arf1 activation

T1 sequence (P84077 2-181): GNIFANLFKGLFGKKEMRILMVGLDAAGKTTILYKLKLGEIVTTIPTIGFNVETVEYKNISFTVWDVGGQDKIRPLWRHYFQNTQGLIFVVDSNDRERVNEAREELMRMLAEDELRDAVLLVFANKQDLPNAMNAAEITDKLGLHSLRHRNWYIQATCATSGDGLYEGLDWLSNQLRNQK

Compound	GGA3 pull-down of active Arf1, western blot
C(=N\Nc1ncnc2sc3c(c12)CCCC3)/c1ccc2[nH]ccc2c1 [DU101]	DU101 or DU102 treatment significantly inhibited Arf1 activity
C(=N\Nc1ncnc2sc3c(c12)CCCCCC3)/c1ccc2[nH]ccc2c1 [DU102]	DU101 or DU102 treatment significantly inhibited Arf1 activity
